Data on one molecule can be found in patent publication US20250352615A1, “COMPOSITIONS AND METHODS FOR THE MODULATION OF PIEZO1 AND TRPV4” (Duke University, priority 2021, published 2025).

In one assay the test system is human PSCs. As to the kind of experiment: Human PSC activation and fibrogenic response (fat droplets, cell shape, ECM mRNA and immunostaining). The assay is classed as cell-based. As for the experimental part: Mouse and human PSCs were isolated using collagenase digestion. Modified Krebs Henseleit Buffer (KHB) solution (100 mL) was prepared as previously described by Romac et al., Nat. Commun. 9(1):1715 (2018). Pancreatic tissue was digested with 2 mg of collagenase NB 8 (SERVA, catalog 17456) dissolved in 10 mL of modified KHB solution containing 1 mg soybean trypsin inhibitor (SBTI 1-S; Millipore Sigma, catalog T9003) and 20 mg BSA (Thermo Fisher Scientific; BP1600-100). Digestion solution (5 mL) was used to inflate the pancreas. Pancreas with 5 mL of digestion solution was incubated in a shaking water bath for 10 minutes at 37° C. The solution was then discarded. The pancreas tissue was cut into small pieces and digested with fresh 5 mL digestion buffer. Tissue was incubated in a shaking water bath for 40 minutes at 37° C. The cells were then separated from tissue by pipetting up-down with a 10 mL pipette and passed sequentially through a 70 μm and a 40 μm cell strainer. The filtrate was centrifuged at 150×g for 3 minutes at room temperature. The cells were washed with 10 mL Leibovitz's media (Thermo Fisher Scientific, catalog 11415-064), passed through a 20 μm filter, and centrifuged at 80×g for 3 minutes at room temperature. The supernate was removed, and isolated stellate cells were plated on a thin-layered Matrigel-coated glass bottom culture plate (MatTek, P35G-0-14-C). Before plating the cells, Matrigel solution (Corning, catalog 354234) at a ratio of 1.5:100 DMEM/F12 (Thermo Fisher Scientific, catalog 11330-032) was poured onto the culture plate and incubated for 2 hr at 37° C. to form a thin layer of Matrigel coating. Matrigel mixture was removed, and the plate was washed with PBS before cells were plated. Cell culture media, DMEM/F12 with 5% FBS was used for mouse stellate cells. Fresh, human pancreatic tissue was digested with collagenase as described above with modifications. Collagenase (2.5 mg) in 10 mL of modified KHB solution was used for digestion. The digested tissues were filtered through a 100 μm cell strainer. The cells were cultured with DMEM/F12 with 10% FBS in a Matrigel-coated plate. After 24 hr, the cell media was replaced with fresh media to remove unattached and dead cells. After 2 days, cells were immunostained for GFAP and used for experiments. Perinuclear fat droplets were stained with BODIPY 493/503 (4,4-Difluoro-1,3,5,7,8-Pentamethyl-4-Bora-3a,4a-Diaza-s-Indacene; Invitrogen, catalog D3922) to confirm stellate cell quiescence. The cell viability following Yoda1 treatment was analyzed using the Live/Dead cell imaging kit (Thermo Fisher Scientific, catalog R37601). RNAs were isolated using the RiboPure Kit (Invitrogen, catalog AM1924) according to manufacturer's instructions.
Fluid shear stress and mechanical pushing applied to stellate cells were achieved as previously described by Wang et al., J. Clin. Invest. 126(12): 4527-4536 (2016). Parallel-plate fluid flow chambers (μ-Slide I 0.4 Luer, or μ-Slide I 0.2 Luer from Ibidi) were used for fluid shear stress experiments. The fluid shear stress (T) was calculated using the formula: τ=η×[…] φ for μ-Slide I 0.4 Luer and τ=η×330.4 φ for μ-Slide I 0.2 Luer, where r represents viscosity of the medium and φ represents flow rate (according to the manufacturer's instructions, Ibidi). Mechanical pushing was achieved by applying a blunt borosilicate glass pipette once to the cell membrane with a deflection of 2-3 μm for 1 second using a micromanipulator (World Precision Instruments).
Mouse and human PSCs were washed with PBS (pH 7.4) and fixed with 4% paraformaldehyde for 10 minutes at room temperature. The fixed cells were treated with 0.1% Triton X-100. […]

Another assay concerns pancreatic acini. Nature of the assay: Trypsinogen activation in pancreatic acini (BZiPAR). The assay is classed as cell-based, mouse. The method, then: To visualize Piezo1-induced trypsinogen activation, acini were loaded with active trypsin enzyme substrate BZiPAR (10 μM). Na-HEPES buffer with 2 mM Ca^2+ was used during imaging. A Zeiss Axio observer Z1 with a high-sensitivity EMCCD camera with a ×40/0.75 EC-Plan-NeoFluar DIC objective was used to capture the Z-stack images with stack thickness of 3 μm at an interval of 12 seconds. The BZiPAR fluorescent wavelength Ex/Em was 498/521 nm. BZiPAR was excited at 470-510 nm and emission collected at 495-550 nm. The captured images were analyzed with MetaMorph software (Molecular Devices).

The subject of a further assay is pancreas. Nature of the assay: Yoda1 pancreatic duct infusion pancreatitis model. The assay is classed as in vivo, mouse. The note with it: Yoda1 0.4 mg/kg infused into the pancreatic duct. As for the experimental part:
Laparotomy surgery was performed both in pancreatic partial duct ligation- and retrograde pancreatic duct infusion-mediated pancreatitis experiments as previously described by Romac et al., Nat. Commun. 9(1):1715 (2018). Yoda1 at a dose of 0.4 mg/kg in 50 μL 1.1% dimethylsulfoxide, 4.8% ethanol, and 94.1% buffered saline was injected. In Yoda1-mediated pancreatitis, the midportion of the pancreas (about 100-125 mg) was carefully excised and used for biochemical assays and histological staining. Histological scoring was evaluated from the entire section. Partial PDL was performed as previously described. Using a stereo microscope, the tail region of the pancreas was visualized, and the main pancreatic duct was ligated carefully with 6-0 Prolene suture without damaging the left portal vein that separates the splenic lobe and gastroduodenal part of the pancreas. […]
Serum amylase concentration was measured by a colorimetric method after reaction with substrate using the Phadebas Amylase Test Tablet (Magle Life Sciences) and the Tecan-infinite M200 Pro plate reader.
MPO was measured using previously described methods with modifications. […] To calculate the mU of MPO/mg of protein, the protein concentrations of the supernatants were measured using the Micro BCA Protein Assay Kit (Thermo Fisher Scientific; 23235). […]

In the case of `Clc1cccc(Cl)c1CSc1nnc(-c2cnccn2)s1` [Yoda1], in the assay with human PSCs (Yoda1 25 μM, 24 hr), the “Fibronectin, collagen type I, and Piezo1 mRNA levels” value was “significantly elevated”; the TGF-β1 gene expression result was “stimulation of profibrotic TGF-β1”; the “mean cell area and maximum diameter (mean Feret's diameter-max)” value is “significant increase in mean cell area and maximum diameter”. In addition, the “PSCs that had lost their perinuclear fat droplets” value in the assay with human PSCs (Yoda1 25 μM, within 24 hours) was approximately 80%. Moreover, the “fibronectin and collagen type I immunostaining” value with human PSCs (after 4 days of Yoda1 25 μM) is given as “abundant”. Besides, in the assay with pancreatic acini (Yoda1), the “trypsin activation in acinar cells from Piezo1aci-KO mice” value is recorded as “did not respond to Yoda1”. Besides, the “trypsin activation (BZiPAR fluorescence)” value in the assay on pancreatic acini (Yoda1 50 μM or CCK 10 nM) was “activated trypsin in pancreatic acini over time”. In the assay on pancreatic acini (Yoda1 50 μM, CCK 10 nM), the “time to trypsin activation after application” value is not above 10 min. Further, in the assay on pancreas, the “pancreatitis in TRPV4-KO mice” value was “did not cause pancreatitis in TRPV4-KO mice”. In addition, the “pancreatitis parameters (pancreatic edema, serum amylase, pancreatic MPO, histological scoring)” value in the assay with pancreas (WT mice) is given as “increased all pancreatitis parameters measured”.
